From patent publication US11278497B2, “Co-spray drying of meropenem and colistin and the uses thereof” (Purdue Research Foundation, priority 2018, dated 2022)
Converted amounts (≈) assume the structure as drawn. Where two headings read alike, the source gives them in different places.

Experiments:
[1] = test system: Pseudomonas aeruginosa 19147; assay: Minimum inhibitory concentration, clinical isolate Pseudomonas aeruginosa 19147; assay type: cell-based
[2] = cited from earlier work
A. baumannii N16870 [3] = assay: Time-kill assay against A. baumannii N16870; assay type: cell-based, Acinetobacter baumannii; settings: for time-kill antibacterial activity, monotherapy (summary): considerable regrowth except colistin at 48 mg/L
Experimental: (§1) Time-kill studies were conducted for meropenem, colistin and three combinations (Colistin:Meropenem_1:3, Colistin:Meropenem_1:1 and Colistin:Meropenem_3:1) against A. baumannii N16870 and P. aeruginosa 19147. All experiments were performed with an initial inoculum of ˜10^6 CFU/mL in 20 mL of Cation-Adjusted Mueller-Hinton Broth (CAMHB) in 50 mL pyrogen-free and sterile polypropylene tubes. Serial samples (50 μL) were collected at 0, 1, 2, 4, and 24 h for viable counting on nutrient agar plates and the limit of detection was 20 CFU/mL. A ProtoCOL automated colony counter (Synbiosis, Cambridge, United Kingdom) was used to quantify bacteria after 24 h of incubation at 37° C. Bacterial growth was measured after 0, 1, 2, 4 and 24 h of incubation at 37° C. A growth control without antibiotic was also tested.

P. aeruginosa 19147 = assay: Time-kill assay against P. aeruginosa 19147; assay type: cell-based, Pseudomonas aeruginosa; settings: for time-kill antibacterial activity, monotherapy (summary): considerable regrowth; for complete bacterial killing in time-kill: monotherapy, e.g. 192 mg/L, at 24 h
Experimental: as §1

A. baumannii N16870 [4] = assay: Minimum inhibitory concentration, clinical isolate A. baumannii N16870; assay type: cell-based, Acinetobacter baumannii
[5] = monotherapy 16 mg/L, up to 24 h

Row | Compound | MIC ([1]; read-out: MIC) [µg/mL] | water solubility [2] | time-kill antibacterial effect (A. baumannii N16870 [3]; [5]) | regrowth in time-kill (A. baumannii N16870 [3]; monotherapy 48 mg/L) | time-kill antibacterial effect (A. baumannii N16870 [3]; monotherapy 48 mg/L) | time-kill antibacterial activity, monotherapy (summary) (A. baumannii N16870 [3]) | time-kill antibacterial activity, monotherapy (summary) (P. aeruginosa 19147) | complete bacterial killing in time-kill (P. aeruginosa 19147) | MIC (A. baumannii N16870 [4]; Acinetobacter baumannii) [µg/mL] | MIC [1] [µg/mL] | regrowth in time-kill (A. baumannii N16870 [3]; monotherapy 16 mg/L) | minimum inhibitory concentration [MIC] (A. baumannii N16870 [4]) [µg/mL]
1 | C[C@@H](O)[C@H]1C(=O)N2C(C(=O)O)=C(S[C@@H]3CN[C@H](C(=O)N(C)C)C3)[C@H](C)[C@H]12 [meropenem] | 16 (≈ 41.7 µM) | approximately 16.4 mg/mL | no antibacterial effect | regrowth was observed in 4 h | marginal antibacterial activity | weak antibacterial activity | weak antibacterial activity | complete killing could not be achieved | 16 (≈ 41.7 µM) |  |  | 
2 | colistin |  |  | bacterial killing |  | bacterial killing | weak antibacterial activity | weak antibacterial activity | complete killing could not be achieved |  | 0.5 | regrowth was evident in 4 h | 0.5
